Experiment [1] deals with Lmna^H222P/H222P mice. The experiment can be described thus: Echocardiography at 20 weeks of age, second-generation MEK1/2 inhibitors from 16 to 20 weeks. The experiment is classed as in vivo, mouse. As to conditions: 1 mg/kg/day, 5 days a week from 16 to 20 weeks. As for the experimental part:
The compounds were administered at a dose of 1 mg/kg/day, 5 days a week to Lmna^H222P/H222P mice, as previously described. Treatment was initiated at 16 weeks of age and continued until the mice were 20 weeks of age. At 20 weeks of age, the mice were analyzed by echocardiography and then sacrificed for biochemical studies. Untreated male Lmna^+/+ and Lmna^H222P/H222P mice were similarly analyzed for comparisons.

The subject of another experiment is ERK1/2. The experiment can be described thus: Immunoblot of phosphorylated ERK1/2 versus total ERK1/2 in hearts of treated mice. The class given is in vivo, mouse. As to conditions: 1 mg/kg/day from 16 to 20 weeks of age. The procedure: Hearts were excised from mice at 16-weeks of age and were homogenized in RIPA extraction buffer (Cell Signalling) containing protease inhibitors (25 […]). Protein samples were subjected to SDS-PAGE, transferred to nitrocellulose membranes and blotted with primary antibodies against ERK1/2 (Santa-Cruz), phosphorylated ERK1/2 (Cell Signaling), JNK (Santa-Cruz), natriuretic peptide precursor A (Santa-Cruz), phosphorylated JNK (Cell Signaling), and Gapdh (Ambion). Secondary antibodies were HRP-conjugated (Amersham). Recognized proteins were visualized by enhanced chemiluminescence (ECL, Amersham). The signal generated using an antibody against Gapdh was used as internal controls to normalize the amounts of protein between immunoblots.
We assessed the efficacy of the chemical entities in inhibiting their targets in the heart by immunoblot using anti-total ERK1/2 (Santa Cruz) and anti-pERK1/2 (Cell Signaling) antibodies.
Proteins were loaded on 10% SDS gels and electrotransferred on a […] pore size nitrocellulose membrane (Invitrogen). We used antibodies directed against phosphorylated ERK1/2 (Cell Signaling, 1:1,000), total ERK1/2 (Santa Cruz, 1:2,000), phosphorylated JNK (Cell Signaling, 1:1,000) and total JNK (Santa Cruz, 1:200). The secondary antibodies were coupled to horseradish-peroxydase (Amersham). Recognized proteins were visualized by enhanced chemiluminescence (SuperSignal® West Pico chemiluminescent substrate, Thermo Scientific).
(In general: A western blot detects proteins with antibodies after separation by electrophoresis.)

In experiment [2] the test system is hearts from Lmna^H222P/H222P mice. As to the kind of experiment: Quantification of myocardial fibrotic area (Gomori's trichrome). The class given is in vivo, mouse. As to conditions: 20 weeks of age; 1 mg/kg/day from 16 to 20 weeks; DMSO 20.93%±2.45%. The text has this:
Later-stage cardiomyopathy caused by LMNA mutations is characterized by myocardial fibrosis. […] We quantified the myocardial fibrotic area of each animal by determining the ratio of fibrotic tissue (blue stained with Gomori's trichrome) to the total tissue area in each micrograph (FIG. 8B). Hearts from DMSO-treated Lmna^H222P/H222P mice had 20.93%±2.45% fibrotic tissue per total surface examined (FIG. 8B).
Mice were sacrificed at 20 weeks of age, and freshly removed hearts were fixed in 4% formaldehyde for 48 hours, embedded in paraffin, sectioned at 5 μm and stained with hematoxylin, eosin and Gomori's trichrome and Syrius Red. Representative stained sections were photographed using a Microphot SA (Nikon) light microscope attached to a Spot RT Slide camera (Diagnostic Instruments) with a 10× objective. Images were processed using Adobe Photoshop CS (Adobe Systems).
Later-stage cardiomyopathy caused by LMNA mutations is characterized by myocardial fibrosis (21,22). […] We quantified the myocardial fibrotic area of each animal by determining the ratio of fibrotic tissue (blue stained with Gomori's trichrome) to the total tissue area in each micrograph (FIG. 34C). Hearts from DMSO-treated Lmna^H222P/H222P mice had 15.01±0.9% fibrotic tissue per total surface examined (FIG. 34D).

The next experiment relates to MEK1/2. As to conditions: Table 10, description of MEK1/2 inhibitors; cited from earlier work.
The subject of experiment [3] is hearts from Lmna^H222P/H222P mice. As to the kind of experiment: Quantitative real-time RT-PCR of mRNAs in hearts of treated mice. The class given is in vivo, mouse. As to conditions: for expression of Colla1 and Colla2: 20 weeks of age, 1 mg/kg/day from 16 to 20 weeks. From the text:
Total RNA was extracted using the Rneasy isolation kit (Qiagen) as previously described (96). cDNA was synthesized as previously described (96) using Omniscript Reverse Transcriptase (Qiagen) on total cellular RNA. For each replicate in each experiment, RNA from tissue samples of different animals was used. Primers were designed that correspond to mouse RNA sequences using Primer3 (http://frodo.wi.mit.edu/cgi-biniprimer3/primer3_www.cgi). The real-time RT-PCR reaction contained iQ SYBR green super mix (Bio-Rad), 200 nM of each primer and 0.2 μl of template in a 25 μl reaction volume. Amplification was carried out using appropriate primers and the MyiQ Single-Color Real-Time PCR Detection System (Bio-Rad) with an initial denaturation at 95° C. for 2 min followed by 50 cycles at 95° C. for 30 s and 62° C. for 30 s. Relative levels of mRNA expression were calculated using the CT method (67). Individual expression values were normalized by comparison with Gapdh mRNA.
Real-time reverse transcription-PCR (RT-PCR) was used to quantify tissue RNA levels. Total RNA was extracted from cardiac ventricles of mice using the Rneasy isolation kit (Qiagen) as previously described. cDNA was synthesized using Superscript first strand synthesis system according to the manufacturer's instructions (Invitrogen) on total RNA. For each replicate in each experiment, RNA from tissue samples of different animals was used. Primers were designed correspond to mouse RNA sequences using Primer3 (http://frodo.wi.mit.edu/cgi-bin/primer3/primer3_www.cgi) for Nppa (forward 5′-[…]-3′ [SEQ ID NO: 4], reverse 5′-[…]-3′ [SEQ ID NO: 5]), Nppb (forward 5′-[…]-3′ [SEQ ID NO: 6], reverse 5′-[…]-3′ [SEQ ID NO: 7]), Mlc-2a (forward 5′-[…]-3′ [SEQ ID NO: 8], reverse 5′-[…]-3′ [SEQ ID NO: 9]), Colla1 (forward 5′-[…]-3′ [SEQ ID NO: 10], reverse 5′-[…]-3′ [SEQ ID NO: 11]), Colla2 (forward 5′-[…]-3′ [SEQ ID NO: 12], reverse 5′-[…]-3′ [SEQ ID NO: 13]) and Fn1 (forward 5′-[…]-3′ [SEQ ID NO: 14], reverse 5′-[…]-3′ [SEQ ID NO: 15]). The real-time RT-PCR reaction contained iQ SYBR green super mix (Bio-Rad), 200 nM of each primer, and 0.2 μl of template in a 25 μl reaction volume. Amplification was carried out using the MyiQ Single-Color Real-Time PCR Detection System (Bio-Rad) with an initial denaturation at 95° C. for […] followed by 50 cycles at 95° C. for 30 s and 62° C. for 30 s. Relative levels of mRNA expression were calculated using the ΔΔCT method (2). Individual expression values were normalized by comparison with Gapdh mRNA (forward 5′-[…]-3′ [SEQ ID NO: 16], reverse 5′-[…]-3′ [SEQ ID NO: 17]).
In general terms: In qPCR the cycle at which signal appears reflects the starting amount.

The test system of experiment [4] is atrial natriuretic factor. As to the kind of experiment: Serum atrial natriuretic factor before and after treatment. The class given is in vivo, mouse. As to conditions: before (16 weeks) and after (20 weeks) treatment; compared to DMSO-treated mice. The text has this:
We measured the expression of atrial-natriuretic factor in the serum Lmna^H222P/H222P mice before (16 weeks) and after (20 weeks) the treatment with the MEK1/2 inhibitors (FIG. 3).

Experiment [5] has as its system Lmna^H222P/H222P mice. The experiment is classed as in vivo, mouse. As to conditions: Lmna^H222P/H222P mice at 16 weeks of age; i.p. 5 days a week from 8 to 16 weeks (PD98059, SP600125 3 mg/kg/day); means ± standard deviations. The procedure:
PD98059 (Calbiochem) and SP600125 (Calbiochem) were dissolved in Dimethyl Sulfoxide (DMSO, Sigma) at a concentration of 0.5 mg/ml and were delivered to a dose of 3 mg/kg/day for 5 days a week. […] The placebo control consisted of DMSO alone. Placebo and inhibitors were administered by intraperitoneal injection using a 27G^5/8 syringe. Treatment was started when mice were 8 weeks of age and continued until 16 weeks of age.
Lmna H222P knock-in mice were generated and genotyped as described (14). […] Lmna^H222P/H222P mice were separated by sex and were given either vehicle alone (DMSO), the MEK inhibitor PD98059 alone, the JNK inhibitor SP600125 alone, both PD98059 and SP600125 together, the MEK inhibitor U0126 alone, or the MEK inhibitor MEK1/2 alone. All the mice were fed on a chow diet and housed in a barrier facility. The Institutional Animal Care and Use Committee at Columbia University Medical Center approved the use of animals in the study protocol.
Cardiac function was assessed by echocardiography with a Visualsonics Vevo 770 ultrasound with a 30-MHz transducer applied to the chest wall. Cardiac ventricular dimensions and ejection fraction were measured in 2D-mode and M-mode three times for the number of animals indicated. A “blinded” echocardiographer, unaware of the genotype or treatment, performed the examinations.
We administered PD98059, at a dose of 3 mg/kg/day or 6 mg/kg/day, or placebo (dimethylsulfoxide; DMSO) by intraperitoneal injection 5 days a week to male homozygous Lmna mutant mice (Lmna^H222P/H222P). […] PD98059 mediates its inhibitory properties by binding to MEK, therefore preventing phosphorylation of ERK1/2.
Treatment was initiated at 8 weeks of age and continued until the mice were 16 weeks of age. At 16 weeks of age, the mice were analyzed by echocardiography and then sacrificed for histological and biochemical studies. Untreated male Lmna^+/+ and Lmna^H222P/H222P mice were similarly analyzed for comparisons.

Setting [6] is: 1 mg/kg/day from 16 to 20 weeks of age.

Read-outs that look alike come from different tables or passages of the source.

Regarding `Cn1cnc2c(F)c(Nc3ccc(Br)cc3Cl)c(C(=O)NOCCO)cc21` [AZD6244], in the experiment with Lmna^H222P/H222P mice [1], the FS is on record as 25.97%±5.05%, the “LVEDD compared to DMSO-treated mice” value is “significantly smaller” and the “LVESD compared to DMSO-treated mice” value is on record as “significantly smaller”. Moreover, the “phosphorylation of ERK1 and ERK2 in hearts” value (from here on “phosphorylation”) in the experiment with ERK1/2 is “inhibited partially”. In addition, the “area of fibrotic tissue per total surface examined” value (from here on “area … per total surface examined”) in experiment [2] is listed as 11.90%±1.97%. In the experiment with MEK1/2, the IC50 is 10 nM. In experiment [3] (setting [6]), the “decrease of Mlc-1a and Mlc-2a mRNAs compared to hearts of DMSO-treated mice” value was “approximately 2 fold”. The “expression of Colla1 and Colla2” value in experiment [3] is recorded as “significantly lowered”. The “expression of atrial natriuretic factor in serum” value (“expression … in serum” below) in experiment [4] is on record as “significantly decreased”.
With `O=C(NOCC1CC1)c1ccc(F)c(F)c1Nc1ccc(I)cc1Cl` [CI-1040], in the experiment on Lmna^H222P/H222P mice [1], the FS improvement entry is “not improved” and the “LVEDD compared to DMSO-treated mice” value was “significantly smaller”. In the experiment on ERK1/2, the “phosphorylation” value is on record as “inhibited partially”. Also, the “area … per total surface examined” value in experiment [2] is listed as 13.10%±0.96%. For the same compound, in the experiment on MEK1/2, the IC50 is 1 nM. Besides, in experiment [3], the “expression of Colla1 and Colla2” value is recorded as “significantly lowered”. In addition, the “expression … in serum” value in experiment [4] was “significantly decreased”.
For the compound `O=C(NOCC(O)CO)c1ccc(F)c(F)c1Nc1ccc(I)cc1F` (centres unmarked) [PD0325901], the FS in the experiment on Lmna^H222P/H222P mice [1] is reported as 23.23%±6.33%. The “phosphorylation” value with ERK1/2 is on record as “inhibited partially”. Besides, in experiment [2], the “area … per total surface examined” value is on record as 15.06%±0.28%. Moreover, in experiment [3] (setting [6]), the “cardiac expression of brain natriuretic factor (Nppb)” value is “decreased”; the “decrease of Mlc-1a and Mlc-2a mRNAs compared to hearts of DMSO-treated mice” value is recorded as “approximately 2 fold”. In addition, the “expression of Colla1 and Colla2” value in experiment [3] is listed as “significantly lowered”. For the same compound, the “expression … in serum” value in experiment [4] is reported as “trend toward diminished expression”.
Take `N#CC(=C(N)Sc1ccc(N)cc1)c1ccccc1C(F)(F)F` [MEK1/2, Z-& E-a-(amino-((4-aminophenyl)thio)methylene)-2-(trifluoromethyl)benzeneacetonitrile]: in the experiment on Lmna^H222P/H222P mice [5], the EF is given as 64.43 ± 0.77%, the FS turned out to be 34.50 ± 0.36%, the IVSD was found to be 0.60 ± 0.00 mm and the LVEDD was determined as 3.77 ± 0.32 mm. Also, in the experiment on Lmna^H222P/H222P mice [5], the LVESD turned out to be 2.62 ± 0.28 mm and the LVPW is recorded as 0.69 ± 0.08 mm.
As for `N#CC(=C(N)Sc1ccccc1N)C(C#N)=C(N)Sc1ccccc1N` [U0126, 1,4-diamino-2,3-dicyano-1,4-bis(2-aminophenylthio)butadiene], in the experiment on Lmna^H222P/H222P mice [5], the EF stood at 62.83 ± 4.09%, the FS stood at 33.79 ± 3.10%, the IVSD is 0.64 ± 0.03 mm and the LVEDD is 3.54 ± 0.16 mm. In addition, in the experiment with Lmna^H222P/H222P mice [5], the LVESD came to 2.47 ± 0.09 mm and the LVPW stood at 0.69 ± 0.11 mm.

In general, IC50 refers to the midpoint of a concentration-inhibition curve.

The record behind these values is patent publication US20110110916A1, “METHODS FOR TREATING AND/OR PREVENTING CARDIOMYOPATHIES BY ERK OR JNK INHIBITION” (priority 2008, published 2011).
